Assay results: patent US9169241B2, “Quinolinyloxyphenylsulfonamides” (Max-Planck-Gesellschaft Zur Forderung der Wissenschaften …, priority 2009, dated 2015)
Like-named read-outs stand apart in the source and are kept apart here.

Key:
A172 = experiment: Cell vitality assay (ATP assay, CellTiter-Glo); assay type: cell-based; conditions: Homo sapiens, A 172; A172, 72 h; Table IIa; read-out: IC50 ATP-Assay after 72 h A172
Procedure, shortened: (§1)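 Cells (1000/well) incubated 72 h with test compound, top dose 12.5 μM, twofold dilutions, DMSO as reference. Lysis reagent added, luminescence recorded; background from cell-free medium wells.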

Hs578T [1] = experiment: Cell vitality assay (ATP assay, CellTiter-Glo); assay type: cell-based; conditions: Homo sapiens, Hs-578T, 72 h
Procedure, shortened: as §1

MDA-MB231 = experiment: Cell vitality assay (ATP assay, CellTiter-Glo); assay type: cell-based; conditions: Homo sapiens, MDA-MB-231
Procedure, shortened: as §1

SF126 = experiment: Cell vitality assay (ATP assay, CellTiter-Glo); assay type: cell-based; conditions: Homo sapiens, SF-126
Procedure, shortened: as §1

U118 = experiment: Cell vitality assay (ATP assay, CellTiter-Glo); assay type: cell-based
Procedure, shortened: as §1

indicated cell line = experiment: Wound healing migration assay (Table IV); assay type: cell-based; conditions: compounds at 12.5, 6.25, 3.125 μM, 48 h-72 h
Procedure, shortened: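 Cells seeded at 150000/24 well, grown to monolayer overnight, scratched with a pipette tip, then treated with compound at 12.5, 6.25 or 3.125 μM versus DMSO. Stopped by crystal violet fixation at 48-72 h once control wounds closed; IC50 taken as 50% wound size between t0 and t48 or t72.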

Hs578T [2] = experiment: Matrigel outgrowth assay/branching assay; assay type: cell-based; conditions: Homo sapiens, Hs-578T; HS578T cell line; Table Ib; read-out: Total branching inhibition in Matrigel HS578T
Procedure, shortened: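 Read-out: microscopic images of invasive branching structures at 48 h, 72 h and 96 h. Cells sat on a 3 mg/ml Matrigel layer (set 1 h, 37° C) with compound at 3.125, 1.56 and 0.78 μM or DMSO. A concentration counts as positive only with complete branching inhibition.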

C8161 = experiment: Cell vitality assay (ATP assay, CellTiter-Glo); assay type: cell-based; conditions: Homo sapiens; C8161, 72 h; Table IIa; read-out: IC50 ATP-Assay after 72 h C8161
Procedure, shortened: as §1

SF763 = experiment: Cell vitality assay (ATP assay, CellTiter-Glo); assay type: cell-based; conditions: SF763, 72 h; Table IIa; read-out: IC50 ATP-Assay after 72 h SF763
Procedure, shortened: as §1

cells = experiment: Boyden chamber migration assay (Table VI); assay type: cell-based; conditions: Homo sapiens, Hs-578T, 16 h, Hs578T cells; 16 h migration
Procedure, shortened: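 20000 cells seeded in the upper compartment in 0% FCS plus 0.1% BSA and left 16 h to migrate through […] membrane toward 10% FCS medium below. Non-migrated cells swabbed off; cells on the filter underside fixed and counted.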

U138 = experiment: Cell vitality assay (ATP assay, CellTiter-Glo); assay type: cell-based; conditions: U138, 72 h; Table IIa; read-out: IC50 ATP-Assay after 72 h U138
Procedure, shortened: as §1

[3] = HS578T cell line, Table Ib, read-out: IC50 ATP-Assay HS578T after 72 h
[4] = cell vitality assay, MDA-MB231, Table IIc, read-out: IC50 MDA-MB231
[5] = SF126, 72 h, Table IIa, read-out: IC50 ATP-Assay after 72 h SF126
[6] = cell vitality assay, SF126, Table IIb, read-out: IC50 SF126
[7] = U118, 72 h, Table IIa, read-out: IC50 ATP-Assay after 72 h U118
[8] = cell vitality assay, U118, Table IIc, read-out: IC50 U118
[9] = Homo sapiens, A 172, A172 cells, read-out: IC50 Wound healing Assay A172
[10] = Homo sapiens, SF-126, SF126 cells, read-out: IC50 Wound healing Assay SF126
[11] = U118 cells, read-out: IC50 Wound healing Assay U118
[12] = MDA-MB231, 72 h, Table IIa, read-out: IC50 ATP-Assay after 72 h MDA-MB231
[13] = Homo sapiens, C8161 cells, read-out: IC50 Wound healing Assay C8161
[14] = SF763 cells, read-out: IC50 Wound healing Assay SF763

Row | IC50 (MDA-MB231; [4]) [µM] | IC50 (indicated cell line; [9]) [µM] | IC50 (indicated cell line; [10]) [µM] | IC50 (indicated cell line; [11]) [µM] | melting point [°C] | IC50 (MDA-MB231; [12]) [µM] | IC50 (indicated cell line; [13]) [µM] | IC50 (indicated cell line; [14]) [µM] | IC50 (cells) [µM] | SMILES | IC50 (A172) [µM] | IC50 (Hs578T [1]; [3]) [µM] | IC50 (SF126; [5]) [µM] | IC50 (SF126; [6]) [µM] | IC50 (U118; [7]) [µM] | IC50 (U118; [8]) [µM] | IC50 (Hs578T [2]) [µM] | IC50 (C8161) [µM] | IC50 (SF763) [µM] | IC50 (U138) [µM] | IC50 (Hs578T [1]; Hs578T, Table IIa, read-out: IC50 ATP-Assay after 72 h Hs578T) [µM]
1 | ≤ 12.5 | ≤ 12.5 | ≤ 12.5 | ≤ 12.5 | 132 to 134 |  |  |  |  | COC(=O)c1sccc1S(=O)(=O)Nc1ccc(Oc2ccnc3cc(OCCCN4CCCC(C)C4)c(OC)cc23)c(F)c1 (stereo not shown) [Example 66, 3-(3-Fluoro-4-{6-methoxy-7-[3-(3-methyl-piperidin-1-yl)-propoxy]-quinolin-4-yloxy}-phenylsulfamoyl)-thiophene-2-carboxylic acid methyl ester] | ≤ 12.5 | ≤ 12.5 | ≤ 12.5 | ≤ 12.5 | ≤ 12.5 | ≤ 12.5 | 10 to 25 |  |  |  | 
2 |  |  |  |  | 125 to 128 | 12.5 to 50 | ≤ 12.5 | 12.5 to 50 | ≤ 5 | COc1cc2c(Oc3ccc(NS(=O)(=O)c4ccccc4[N+](=O)[O-])cc3F)ccnc2cc1OCCCN1CCN(C)CC1 [Example 21, N-(3-Fluoro-4-{6-methoxy-7-[3-(4-methyl-piperazin-1-yl)-propoxy]-quinolin-4-yloxy}-phenyl)-2-nitro-benzenesulfonamide] |  |  | 12.5 to 50 |  | 12.5 to 50 |  | ≤ 10 | 12.5 to 50 | 12.5 to 50 |  | 
3 |  |  |  |  | 140 to 141 | ≤ 12.5 | 12.5 to 50 | 12.5 to 50 | ≤ 5 | COc1cc2c(Oc3ccc(NS(=O)(=O)c4cccc(Oc5ccccc5)c4)cc3F)ccnc2cc1OCCCN1CCN(C)CC1 [Example 14, N-(3-Fluoro-4-{6-methoxy-7-[3-(4-methyl-piperazin-1-yl)-propoxy]-quinolin-4-yloxy}-phenyl)-3-phenoxy-benzenesulfonamide] |  |  | ≤ 12.5 |  | 12.5 to 50 |  |  | ≤ 12.5 | ≤ 12.5 | 12.5 to 50 | 
4 | ≤ 12.5 |  |  |  | 102 to 106 |  | ≤ 12.5 |  | ≤ 5 | COc1cc2c(Oc3ccc(NS(=O)(=O)c4ccccc4C(F)(F)F)cc3F)ccnc2cc1OCCCN1CCN(C)CC1 [Example 24, N-(3-Fluoro-4-{6-methoxy-7-[3-(4-methyl-piperazin-1-yl)-propoxy]-quinolin-4-yloxy}-phenyl)-2-trifluoromethyl-benzenesulfonamide] |  |  |  | ≤ 12.5 |  | 12.5 to 50 |  |  |  |  | 
5 | ≤ 12.5 | ≤ 12.5 | ≤ 12.5 | ≤ 12.5 |  |  | ≤ 12.5 |  | ≤ 5 | COc1cc2c(Oc3ccc(NS(=O)(=O)c4cc(F)ccc4F)cc3F)ccnc2cc1OCCCN1CCN(C)CC1 [Example 12, 2,5-Difluoro-N-(3-fluoro-4-{6-methoxy-7-[3-(4-methyl-piperazin-1-yl)-propoxy]-quinolin-4-yloxy}-phenyl)-benzenesulfonamide] | ≤ 12.5 | ≤ 12.5 | ≤ 12.5 | ≤ 12.5 | ≤ 12.5 | ≤ 12.5 | ≤ 10 |  |  |  | 
6 |  | ≤ 12.5 | ≤ 12.5 | ≤ 12.5 | 113 to 115 |  | 12.5 to 50 | ≤ 12.5 | ≤ 5 | COc1cc2c(Oc3ccc(NS(=O)(=O)c4cccc(-c5ccccc5)c4)cc3F)ccnc2cc1OCCCN1CCCCC1 [Example 8, Biphenyl-3-sulfonic acid {3-fluoro-4-[6-methoxy-7-(3-piperidin-1-yl-propoxy)-quinolin-4-loxy]-phenyl}-amide] | ≤ 12.5 | 12.5 to 50 | ≤ 12.5 |  | ≤ 12.5 |  | ≤ 10 | ≤ 12.5 | ≤ 12.5 | ≤ 12.5 | 12.5 to 50
